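A five-concentration, 48-hour dose response in 96-well plates underlies each endpoint, interpolated linearly between surrounding concentrations. TGI: total growth inhibition.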
Tests used:
Assay in all cases: inhibition of tumour cell growth, NCI panel, 48 h
[1] = tested on: 786-0 renal
[2] = tested on: A498 renal
[3] = tested on: A549 NSCLC
[4] = tested on: ACHN renal
[5] = tested on: CAKI-1 renal
[6] = tested on: CCRF-CEM leukemia
[7] = tested on: COLO 205 colon
[8] = tested on: DLD-1 colon
[9] = tested on: DMS 114 small cell lung
[10] = tested on: DMS 273 small cell lung
[11] = tested on: EKVX NSCLC
[12] = tested on: HCC-2998 colon
[13] = tested on: HCT-116 colon
[14] = tested on: HCT-15 colon
[15] = tested on: HL-60(TB) leukemia
[16] = tested on: HOP-18 NSCLC
[17] = tested on: HOP-62 NSCLC
[18] = tested on: HOP-92 NSCLC
[19] = tested on: HT29 colon
[20] = tested on: IGROV1 ovarian
[21] = tested on: K-562 leukemia
[22] = tested on: KM12 colon
[23] = tested on: KM20L2 colon
[24] = tested on: LOX IMVI melanoma
[25] = tested on: LXFL 529 NSCLC
[26] = tested on: M14 melanoma
[27] = tested on: M19-MEL melanoma
[28] = tested on: MALME-3M melanoma
[29] = tested on: MOLT-4 leukemia
[30] = tested on: NCI-H226 lung
[31] = tested on: NCI-H23 lung
[32] = tested on: NCI-H460 lung
[33] = tested on: NCI-H522 lung
[34] = tested on: OVCAR-3 ovarian
[35] = tested on: OVCAR-4 ovarian
[36] = tested on: OVCAR-5 ovarian
[37] = tested on: OVCAR-8 ovarian
[38] = tested on: RXF 393 renal
[39] = tested on: SF-268 CNS
[40] = tested on: SF-295 CNS
[41] = tested on: SF-539 CNS
[42] = tested on: SK-MEL-28 melanoma
[43] = tested on: SK-MEL-5 melanoma
[44] = tested on: SK-OV-3 ovarian
[45] = tested on: SN12C renal
[46] = tested on: SNB-19 CNS
[47] = tested on: SNB-75 CNS
[48] = tested on: SNB-78 CNS
[49] = tested on: SW-620 colon
[50] = tested on: TK-10 renal
[51] = tested on: U251 CNS
[52] = tested on: UACC-257 melanoma
[53] = tested on: UACC-62 melanoma
[54] = tested on: UO-31 renal
[55] = tested on: XF 498 CNS
[56] = tested on: RPMI-8226 leukemia
[57] = tested on: SK-MEL-2 melanoma
[58] = tested on: SR leukemia
[59] = tested on: BT-549 breast
[60] = tested on: DU-145 prostate
[61] = tested on: HS 578T breast
[62] = tested on: MCF7 breast
[63] = tested on: MDA-MB-231 breast
[64] = tested on: MDA-MB-435
[65] = tested on: MDA-N
[66] = tested on: NCI/ADR-RES ovarian
[67] = tested on: PC-3 prostate
[68] = tested on: RXF-631 renal
[69] = tested on: T-47D breast

SMILES: NC(=O)c1ccc(Cl)c([N+](=O)[O-])c1
- TGI [1]: > 100 µM
- TGI [2]: > 100 µM
- TGI [3]: > 100 µM
- TGI [4]: > 100 µM
- TGI [5]: > 100 µM
- TGI [6]: > 100 µM
- TGI [7]: > 100 µM
- TGI [8]: > 100 µM
- TGI [9]: > 100 µM
- TGI [10]: > 100 µM
- TGI [11]: > 100 µM
- TGI [12]: > 100 µM
- TGI [13]: > 100 µM
- TGI [14]: > 100 µM
- TGI [15]: > 100 µM
- TGI [16]: > 100 µM
- TGI [17]: > 100 µM
- TGI [18]: > 100 µM
- TGI [19]: > 100 µM
- TGI [20]: > 100 µM
- TGI [21]: > 100 µM
- TGI [22]: > 100 µM
- TGI [23]: > 100 µM
- TGI [24]: > 100 µM
- TGI [25]: > 100 µM
- TGI [26]: > 100 µM
- TGI [27]: > 100 µM
- TGI [28]: > 100 µM
- TGI [29]: > 100 µM
- TGI [30]: > 100 µM
- TGI [31]: > 100 µM
- TGI [32]: > 100 µM
- TGI [33]: > 100 µM
- TGI [34]: > 100 µM
- TGI [35]: > 100 µM
- TGI [36]: > 100 µM
- TGI [37]: > 100 µM
- TGI [38]: > 100 µM
- TGI [39]: > 100 µM
- TGI [40]: > 100 µM
- TGI [41]: > 100 µM
- TGI [42]: > 100 µM
- TGI [43]: > 100 µM
- TGI [44]: > 100 µM
- TGI [45]: > 100 µM
- TGI [46]: > 100 µM
- TGI [47]: > 100 µM
- TGI [48]: > 100 µM
- TGI [49]: > 100 µM
- TGI [50]: > 100 µM
- TGI [51]: > 100 µM
- TGI [52]: > 100 µM
- TGI [53]: > 100 µM
- TGI [54]: > 100 µM
- TGI [55]: > 100 µM

SMILES: COC(=O)CC[C@]12C[C@]13CC[C@]1(C)C4C(C)C[C@]5(CC(C)C(=O)O5)OC4CC1(C)C3CCC2C(C)(C)O (stereo partly specified)
- TGI [1]: > 100 µM
- TGI [2]: > 100 µM
- TGI [3]: > 100 µM
- TGI [4]: > 100 µM
- TGI [7]: > 100 µM
- TGI [8]: > 100 µM
- TGI [9]: > 100 µM
- TGI [10]: > 100 µM
- TGI [11]: > 100 µM
- TGI [12]: > 100 µM
- TGI [13]: > 100 µM
- TGI [14]: > 100 µM
- TGI [15]: 66.1 µM
- TGI [16]: > 100 µM
- TGI [17]: > 100 µM
- TGI [18]: 65.1 µM
- TGI [19]: > 100 µM
- TGI [20]: > 100 µM
- TGI [21]: > 100 µM
- TGI [22]: > 100 µM
- TGI [23]: > 100 µM
- TGI [24]: > 100 µM
- TGI [25]: > 100 µM
- TGI [26]: > 100 µM
- TGI [27]: > 100 µM
- TGI [28]: > 100 µM
- TGI [31]: > 100 µM
- TGI [32]: > 100 µM
- TGI [33]: > 100 µM
- TGI [34]: > 100 µM
- TGI [35]: > 100 µM
- TGI [36]: > 100 µM
- TGI [37]: > 100 µM
- TGI [56]: 98.7 µM
- TGI [38]: > 100 µM
- TGI [39]: > 100 µM
- TGI [40]: > 100 µM
- TGI [41]: > 100 µM
- TGI [57]: 82.6 µM
- TGI [42]: > 100 µM
- TGI [43]: > 100 µM
- TGI [44]: > 100 µM
- TGI [45]: > 100 µM
- TGI [46]: > 100 µM
- TGI [47]: > 100 µM
- TGI [48]: > 100 µM
- TGI [58]: > 100 µM
- TGI [49]: > 100 µM
- TGI [50]: > 100 µM
- TGI [51]: > 100 µM
- TGI [52]: > 100 µM
- TGI [54]: > 100 µM
- TGI [55]: 87.6 µM

SMILES: N#Cc1cccc(N2C(=O)C3C4C=CC(C3C2=O)C2C(=O)N(c3cccc(C#N)c3)C(=O)C42)c1 (stereo unspecified)
- TGI [1]: > 63.1 µM
- TGI [2]: 42 µM
- TGI [3]: > 63.1 µM
- TGI [4]: 55.2 µM
- TGI [59]: 72.1 µM
- TGI [5]: > 87 µM
- TGI [6]: 53.7 µM
- TGI [7]: > 63.1 µM
- TGI [8]: > 46.4 µM
- TGI [9]: 42 µM
- TGI [10]: > 31.6 µM
- TGI [60]: > 100 µM
- TGI [11]: > 100 µM
- TGI [12]: > 56.2 µM
- TGI [13]: 31.6 µM
- TGI [14]: > 63.1 µM
- TGI [15]: > 100 µM
- TGI [16]: > 100 µM
- TGI [17]: 38.1 µM
- TGI [18]: 31.6 µM
- TGI [61]: > 95.5 µM
- TGI [19]: > 63.1 µM
- TGI [20]: 49.2 µM
- TGI [21]: 55.8 µM
- TGI [22]: > 56.2 µM
- TGI [23]: > 100 µM
- TGI [24]: > 63.1 µM
- TGI [25]: > 46.4 µM
- TGI [26]: > 63.1 µM
- TGI [28]: 99.4 µM
- TGI [62]: > 100 µM
- TGI [63]: > 100 µM
- TGI [64]: > 100 µM
- TGI [65]: > 100 µM
- TGI [29]: 50.2 µM
- TGI [30]: > 63.1 µM
- TGI [31]: 52.5 µM
- TGI [32]: > 63.1 µM
- TGI [33]: 38.2 µM
- TGI [66]: > 100 µM
- TGI [34]: > 100 µM
- TGI [35]: > 63.1 µM
- TGI [36]: > 63.1 µM
- TGI [37]: > 63.1 µM
- TGI [67]: > 100 µM
- TGI [56]: > 56.2 µM
- TGI [38]: 22.9 µM
- TGI [68]: 42.9 µM
- TGI [39]: 49.7 µM
- TGI [40]: 36.7 µM
- TGI [41]: 61.4 µM
- TGI [57]: 34.7 µM
- TGI [42]: > 63.1 µM
- TGI [43]: > 63.1 µM
- TGI [44]: 34.9 µM
- TGI [45]: > 39.8 µM
- TGI [46]: > 80.1 µM
- TGI [47]: 17.6 µM
- TGI [48]: 33.7 µM
- TGI [58]: 49.5 µM
- TGI [49]: > 100 µM
- TGI [69]: > 31.6 µM
- TGI [50]: 50 µM
- TGI [51]: 26.8 µM
- TGI [52]: > 63.1 µM
- TGI [53]: > 100 µM
- TGI [54]: 61.8 µM
- TGI [55]: 36.2 µM

— PubChem BioAssay (NCI)
